# In patent US10196364B2, “Pyrimidine carboxamides as sodium channel blockers” (Purdue Pharma L.P., priority 2013, dated 2019):
# Experiments:
# [1] = target: hNav1.7 (Homo sapiens, UniProt Q15858); experiment: Electrophysiology (EP) whole-cell patch clamp assay in hNav1.7 expressing HEK-293 cells; type: cell-based; settings: Table 7; affinity for inactivated channels; read-out: Nav1.7 Activity (μM) EP assay Ki
# Procedure: The hNav1.7 expressing HEK-293 cells were plated on 35 mm culture dishes pre-coated with poly-D-lysine in standard DMEM culture media (Mediatech, Inc., Herndon, Va.) and incubated in a 5% CO2 incubator at 37° C. Cultured cells were used approximately 12-48 h after plating.
# On the day of experimentation, the 35 mm dish was placed on the stage of an inverted microscope equipped with a perfusion system that continuously perfuses the culture dish with fresh recording media. A gravity driven superfusion system was used to apply test solutions directly to the cell under evaluation. This system consists of an array of glass pipette glass connected to a motorized horizontal translator. The outlet of the shooter was positioned approximately 100 μm from the cell of interest.
# Whole cell currents were recorded using the whole-cell patch clamp configuration using an Axopatch 200B amplifier (Axon Instruments, Foster City Calif.), 1322A A/D converter (Axon Instruments) and pClamp software (v. 8; Axon Instruments) and stored on a personal computer. Gigaseals were formed and the whole-cell configuration was established in voltage clamp mode, and membrane currents generated by hNav1.7 were recorded in gap-free mode. Borosilicate glass pipettes have resistance values between 1.5 and 2.0 MΩ when filled with pipette solution and series resistance (<5 MΩ) was compensated 75-80%. Signals were sampled at 50 kHz and low pass filtered at 3 kHz.
# After establishing the whole-cell configuration in voltage clamp mode, two voltage protocols were run to establish: 1) the holding potential; and 2) the test potential for each cell.
# To determine a membrane potential at which the majority of channels are in the resting state, a standard steady-state inactivation (SSIN) protocol was run using 100 ms prepulses×10 mV depolarizing steps. The holding potential for testing resting block (Vh1) was 20 mV more hyperpolarized than the first potential where inactivation is observed with the inactivation protocol.
# From this holding potential a standard I-V protocol was run to determine the potential at which the maximal current (Imax) was elicited. This potential was the test potential (Vt).
# The compound testing protocol was a series of 10 ms depolarizations from the Vh1 (determined from the SSIN) to the Vt (determined from the I-V protocol) repeated every 10-15 seconds. […] Washout of the compound was attempted by superfusing with control solution once steady-state block was observed. The fractional response was calculated as follows: FR=I(after drug)/I(control), where I is the peak current amplitude and was used for estimating resting block dissociation constant, Kr: Kr=[drug]*{FR/(1−FR)}, where [drug] is the concentration of a drug.
# To assess the block of inactivated channels the holding potential was depolarized such that 20-50% of the current amplitude was reduced when pulsed to the same Vt as above. The magnitude of this depolarization depends upon the initial current amplitude and the rate of current loss due to slow inactivation. This was the second holding potential (Vh2). The current reduction was recorded to determine the fraction of available channels at this potential (h). h=I@Vh2/Imax.
# At this membrane voltage a proportion of channels are in the inactivated state, and thus inhibition by a blocker includes interaction with both resting and inactivated channels.
# To determine the potency of the test compound on inactivated channels, a series of currents were elicited by 10 ms voltage steps from Vh2 to Vt every 10-15 seconds. After establishing a stable baseline, the low concentration of the compound was applied. Multiple cumulative concentrations may have to be applied to identify a concentration that will block between 40-60% of the current. Washout was attempted to re-establish baseline. Fractional responses were measured with respect to a projected baseline to determine Kapp. Kapp=[drug]*{FR/(1−FR)}, where [drug] is the concentration of a drug. […]
# [2] = target: human Nav1.7 (Homo sapiens, UniProt Q15858); experiment: FLIPR membrane potential dye assay (alternative fluorescence assay) in Nav1.7 expressing cells; type: cell-based; settings: Table 7
# [3] = target: Nav1.3 (Homo sapiens, UniProt Q9NY46); settings: read-out: TTX IC50; cited from earlier work
# [4] = target: Nav1.8 (Homo sapiens, UniProt Q9Y5Y9); settings: read-out: TTX IC50; cited from earlier work
# [5] = system: SNL-induced mechanical hyperalgesia; experiment: SNL-induced mechanical hyperalgesia model in rats (paw pressure test, PWT); type: in vivo, rat; settings: dosed orally at 100 mg/kg (vehicle: 0.5% methyl cellulose) one hour before testing
# Procedure: Each experiment uses rats weighing between 200-260 g at the start of the experiment. The rats are group-housed and have free access to food and water at all times, except prior to oral administration of a test compound when food is removed for 16 h before dosing. A control group acts as a comparison to rats treated with a Compound of the Disclosure. The control group is administered the carrier as used for the test compound. The volume of carrier administered to the control group is the same as the volume of carrier and test compound administered to the test group. In the Chung model, the spinal nerve ligation (SNL) model of neuropathic pain is used to produce mechanical hyperalgesia, thermal hyperalgesia, and tactile allodynia in rats. Surgery is performed under isoflurane/O2 inhalation anesthesia. Following induction of anesthesia a 3 cm incision is made and the left paraspinal muscles are separated from the spinous process at the L4-S2 levels. The L6 transverse process is carefully removed with a pair of small rongeurs to identify visually the L4-L6 spinal nerves. […] The animals are assessed for response to noxious mechanical stimuli by determining PWT, as described below, prior to surgery (baseline), then immediately prior to and 1, 3, and 5 hours after being administered a Compound of the Disclosure or vehicle, for the left rear paw of the animal. The animals can also be assessed for response to noxious thermal stimuli or for tactile allodynia, as described below. […] Sensitivity to noxious mechanical stimuli was measured in animals using the paw pressure test to assess mechanical hyperalgesia. In rats, hind paw withdrawal thresholds (“PWT”), measured in grams, in response to a noxious mechanical stimulus were determined using an analgesymeter (Model 7200, commercially available from Ugo Basile of Italy), as described in Stein (Biochemistry & Behavior 31: 451-455 (1988)). […] PWT was determined once for each rat at each time point. PWT can be measured only in the injured paw, or in both the injured and non-injured paw. […]
# Sequence of hNav1.7 (Q15858 1-1977 isoform Q15858-3): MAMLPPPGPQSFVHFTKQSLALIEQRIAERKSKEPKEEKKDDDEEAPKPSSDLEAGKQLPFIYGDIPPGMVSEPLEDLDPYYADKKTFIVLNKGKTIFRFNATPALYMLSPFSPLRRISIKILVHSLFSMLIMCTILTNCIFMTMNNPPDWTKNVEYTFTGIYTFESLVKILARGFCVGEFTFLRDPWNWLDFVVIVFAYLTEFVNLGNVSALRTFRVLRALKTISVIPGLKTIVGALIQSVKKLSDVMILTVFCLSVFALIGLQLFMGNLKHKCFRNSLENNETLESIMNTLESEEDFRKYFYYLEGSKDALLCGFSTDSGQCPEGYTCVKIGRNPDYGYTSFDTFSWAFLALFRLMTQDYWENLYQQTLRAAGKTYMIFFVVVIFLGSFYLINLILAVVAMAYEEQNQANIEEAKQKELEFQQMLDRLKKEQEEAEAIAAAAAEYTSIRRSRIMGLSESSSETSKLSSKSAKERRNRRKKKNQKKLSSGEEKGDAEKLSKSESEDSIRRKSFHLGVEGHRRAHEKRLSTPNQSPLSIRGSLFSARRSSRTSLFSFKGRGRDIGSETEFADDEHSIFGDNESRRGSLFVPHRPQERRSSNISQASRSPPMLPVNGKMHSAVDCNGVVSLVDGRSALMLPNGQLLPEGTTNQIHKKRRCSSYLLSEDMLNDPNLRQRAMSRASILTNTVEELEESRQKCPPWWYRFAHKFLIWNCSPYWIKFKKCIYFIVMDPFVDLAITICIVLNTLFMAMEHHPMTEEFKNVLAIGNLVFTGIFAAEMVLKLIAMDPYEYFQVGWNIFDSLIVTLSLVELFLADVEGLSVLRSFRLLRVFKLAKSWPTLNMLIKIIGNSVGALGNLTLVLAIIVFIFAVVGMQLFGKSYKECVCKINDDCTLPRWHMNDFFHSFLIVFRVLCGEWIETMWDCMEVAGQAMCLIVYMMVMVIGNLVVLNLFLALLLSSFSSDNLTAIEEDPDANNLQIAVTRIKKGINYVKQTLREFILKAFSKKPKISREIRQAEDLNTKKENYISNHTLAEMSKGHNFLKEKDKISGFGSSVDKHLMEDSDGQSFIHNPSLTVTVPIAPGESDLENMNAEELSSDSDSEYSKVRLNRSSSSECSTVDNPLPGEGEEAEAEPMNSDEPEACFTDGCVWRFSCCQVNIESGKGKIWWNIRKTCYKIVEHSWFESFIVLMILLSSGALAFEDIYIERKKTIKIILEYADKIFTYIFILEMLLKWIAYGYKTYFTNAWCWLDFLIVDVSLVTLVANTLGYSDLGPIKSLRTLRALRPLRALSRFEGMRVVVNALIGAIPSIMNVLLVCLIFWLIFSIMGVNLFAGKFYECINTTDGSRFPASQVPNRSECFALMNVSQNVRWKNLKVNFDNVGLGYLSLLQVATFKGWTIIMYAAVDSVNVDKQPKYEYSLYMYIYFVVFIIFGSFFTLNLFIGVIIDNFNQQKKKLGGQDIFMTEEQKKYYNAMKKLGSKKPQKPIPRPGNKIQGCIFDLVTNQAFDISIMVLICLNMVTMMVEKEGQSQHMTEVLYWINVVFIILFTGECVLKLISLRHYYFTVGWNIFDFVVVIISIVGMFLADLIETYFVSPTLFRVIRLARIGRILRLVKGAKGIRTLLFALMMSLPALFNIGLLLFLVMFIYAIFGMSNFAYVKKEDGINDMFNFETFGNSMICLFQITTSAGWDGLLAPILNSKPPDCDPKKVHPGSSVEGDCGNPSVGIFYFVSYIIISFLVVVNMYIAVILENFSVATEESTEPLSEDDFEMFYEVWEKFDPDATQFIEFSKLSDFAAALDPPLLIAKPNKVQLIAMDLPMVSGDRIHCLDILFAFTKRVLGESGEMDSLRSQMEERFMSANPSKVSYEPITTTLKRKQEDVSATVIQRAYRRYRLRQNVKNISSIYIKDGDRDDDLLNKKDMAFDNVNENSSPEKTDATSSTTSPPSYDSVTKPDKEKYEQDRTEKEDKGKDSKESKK
# Sequence of human Nav1.7 (Q15858 1-1977 isoform Q15858-3): as above
# Sequence of Nav1.3 (Q9NY46 whole entry, looked up): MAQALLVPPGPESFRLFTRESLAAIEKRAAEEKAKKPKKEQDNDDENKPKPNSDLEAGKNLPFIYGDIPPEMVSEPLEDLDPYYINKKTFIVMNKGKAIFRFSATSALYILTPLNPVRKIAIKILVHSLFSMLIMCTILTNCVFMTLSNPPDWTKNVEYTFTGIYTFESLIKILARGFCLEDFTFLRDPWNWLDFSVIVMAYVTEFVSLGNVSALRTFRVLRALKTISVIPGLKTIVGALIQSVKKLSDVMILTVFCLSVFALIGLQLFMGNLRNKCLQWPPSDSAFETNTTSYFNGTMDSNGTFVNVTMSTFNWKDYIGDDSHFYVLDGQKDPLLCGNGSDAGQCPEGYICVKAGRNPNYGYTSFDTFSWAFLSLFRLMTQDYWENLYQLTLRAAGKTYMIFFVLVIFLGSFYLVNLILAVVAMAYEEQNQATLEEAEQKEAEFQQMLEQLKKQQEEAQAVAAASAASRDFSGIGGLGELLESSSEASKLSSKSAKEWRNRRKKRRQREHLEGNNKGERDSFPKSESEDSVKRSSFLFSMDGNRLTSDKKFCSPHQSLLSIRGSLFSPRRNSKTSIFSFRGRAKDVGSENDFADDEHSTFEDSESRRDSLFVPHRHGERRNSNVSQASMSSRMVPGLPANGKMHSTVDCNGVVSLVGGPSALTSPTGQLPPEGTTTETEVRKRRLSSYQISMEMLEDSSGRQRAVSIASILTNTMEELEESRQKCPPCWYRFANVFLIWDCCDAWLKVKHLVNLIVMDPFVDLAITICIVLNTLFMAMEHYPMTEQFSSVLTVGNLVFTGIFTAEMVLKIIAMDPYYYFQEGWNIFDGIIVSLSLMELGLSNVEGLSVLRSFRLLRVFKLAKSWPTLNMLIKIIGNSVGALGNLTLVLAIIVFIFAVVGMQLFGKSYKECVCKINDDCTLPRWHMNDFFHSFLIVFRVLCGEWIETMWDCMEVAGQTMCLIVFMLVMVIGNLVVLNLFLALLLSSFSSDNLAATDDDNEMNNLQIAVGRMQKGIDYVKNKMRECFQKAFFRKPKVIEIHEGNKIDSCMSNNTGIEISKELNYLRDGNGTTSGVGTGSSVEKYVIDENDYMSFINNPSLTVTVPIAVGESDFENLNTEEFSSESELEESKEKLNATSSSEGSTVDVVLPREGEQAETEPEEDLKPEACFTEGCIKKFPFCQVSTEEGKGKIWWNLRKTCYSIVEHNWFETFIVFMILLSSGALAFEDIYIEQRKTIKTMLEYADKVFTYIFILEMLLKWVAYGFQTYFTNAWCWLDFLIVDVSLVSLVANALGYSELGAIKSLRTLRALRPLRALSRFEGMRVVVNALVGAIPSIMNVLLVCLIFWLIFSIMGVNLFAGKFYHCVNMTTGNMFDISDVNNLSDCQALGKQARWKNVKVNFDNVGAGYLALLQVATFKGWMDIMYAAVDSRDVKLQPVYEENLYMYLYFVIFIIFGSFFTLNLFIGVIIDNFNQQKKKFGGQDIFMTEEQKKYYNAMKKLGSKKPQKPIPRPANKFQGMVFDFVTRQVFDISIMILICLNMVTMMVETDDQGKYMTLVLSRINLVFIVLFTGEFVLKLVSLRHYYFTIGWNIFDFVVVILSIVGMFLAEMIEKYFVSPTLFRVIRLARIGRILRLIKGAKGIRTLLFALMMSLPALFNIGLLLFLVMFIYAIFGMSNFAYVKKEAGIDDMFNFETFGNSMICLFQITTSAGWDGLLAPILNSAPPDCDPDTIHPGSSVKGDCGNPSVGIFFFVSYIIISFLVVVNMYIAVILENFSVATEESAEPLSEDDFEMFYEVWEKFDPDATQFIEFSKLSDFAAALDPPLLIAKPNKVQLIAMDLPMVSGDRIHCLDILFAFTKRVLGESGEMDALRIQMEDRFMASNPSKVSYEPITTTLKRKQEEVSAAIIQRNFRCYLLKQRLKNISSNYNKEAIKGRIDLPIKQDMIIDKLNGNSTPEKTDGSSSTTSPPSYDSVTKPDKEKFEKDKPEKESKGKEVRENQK
Structure (SMILES),Ki [1],IC50 [2],other results
"CCN(CC)Cc1cc(C(F)(F)F)ccc1Oc1ccc(-c2nc(N[C@H](C)C(N)=O)cc(C(N)=O)n2)cc1 [Cpd No. 215, (R)-6-((1-amino-1-oxopropan-2-yl)amino)-2-(4-(2-((diethylamino)methyl)-4-(trifluoromethyl)phenoxy)phenyl)pyrimidine-4-carboxamide]",1.39 µM,7.35 µM,–
"NC1=N[C@H](O)[C@H]2[C@H]3O[C@]4(O)O[C@@H]([C@@H](O)[C@@]2(N1)[C@@H]4O)[C@]3(O)CO [TTX, tetrodotoxin]",–,–,IC50 [3]: 0.015 µM; IC50 [4]: 50 µM
"NC(=O)c1cc(N[C@H]2CCNC2=O)nc(-c2ccc(Oc3ccc(C(F)(F)F)cn3)cc2)n1 [compound 99, (S)-6-((2-oxopyrrolidin-3-yl)amino)-2-(4-((5-(trifluoromethyl)pyridin-2-yl)oxy)phenyl)pyrimidine-4-carboxamide]",–,–,SNL-induced mechanical hyperalgesia in rats [5]: reduced SNL-induced mechanical hyperalgesia
"C[C@H](Nc1cc(C(N)=O)nc(-c2ccc(Oc3ccc(OC(F)(F)F)cc3)cc2)n1)C(N)=O [Cpd No. 84, (S)-6-((1-amino-1-oxopropan-2-yl)amino)-2-(4-(4-(trifluoromethoxy)phenoxy)phenyl)pyrimidine-4-carboxamide]",–,–,SNL-induced mechanical hyperalgesia in rats [5]: reduced SNL-induced mechanical hyperalgesia
"NC(=O)c1cc(O[C@H]2CCNC2=O)nc(-c2ccc(Oc3ccc(C4CC4)cn3)cc2)n1 [Cpd No. 234, (S)-2-(4-((5-cyclopropylpyridin-2-yl)oxy)phenyl)-6-((2-oxopyrrolidin-3-yl)oxy)-pyrimidine-4-carboxamide]",0.67 µM,1.2 µM,–
"NC(=O)c1cc(O[C@H]2CCNC2=O)nc(-c2ccc(Oc3ccc(C(F)(F)F)cn3)cc2)n1 [Cpd No. 227, (S)-6-((2-oxopyrrolidin-3-yl)oxy)-2-(4-((5-(trifluoro-methyl)pyridin-2-yl)oxy)phenyl)pyrimidine-4-carboxamide]",0.15 µM,0.55 µM,–
"C[C@H](Nc1cc(C(N)=O)nc(-c2ccc(Cc3ccc(C(F)(F)F)cn3)cc2)n1)C(N)=O [Cpd No. 228, (S)-6-((1-amino-1-oxopropan-2-yl)amino)-2-(4-((5-(trifluoro-methyl)pyridin-2-yl)methyl)-phenyl)pyrimidine-4-carboxamide]",1.1 µM,1.1 µM,–
C[C@H](Oc1cc(C(N)=O)nc(-c2ccc(Oc3ccc(C(F)(F)F)cc3)cc2)n1)C(N)=O [compound 98],–,–,SNL-induced mechanical hyperalgesia in rats [5]: reduced SNL-induced mechanical hyperalgesia
"NC(=O)c1cc(O[C@H]2CCNC2=O)nc(-c2ccc(Oc3ccc(C(F)(F)F)cc3CN3CCCC3)cc2)n1 [Cpd No. 230, (S)-6-((2-oxopyrrolidin-3-yl)oxy)-2-(4-(2-(pyrrolidin-1-ylmethyl)-4-(trifluoromethyl)-phenoxy)phenyl)pyrimidine-4-carboxamide]",0.74 µM,1.72 µM,–
"NC(=O)c1cc(O[C@H]2CCNC2=O)nc(N2[C@@H]3CC[C@H]2C[C@@H](Oc2ccc(C(F)(F)F)cn2)C3)n1 [Cpd No. 224, 6-(((S)-2-oxopyrrolidin-3-yl)oxy)-2-((1R,3S,5S)-3-((5-(trifluoromethyl)pyridin-2-yl)oxy)-8-azabicyclo[3.2.1]octan-8-yl)pyrimidine-4-carboxamide]",0.81 µM,1.01 µM,–
"NC(=O)c1cc(O[C@H]2CCNC2=O)nc(-c2ccc(Cc3ccc(C(F)(F)F)cn3)cc2)n1 [Cpd No. 229, (S)-6-((2-oxopyrrolidin-3-yl)oxy)-2-(4-((5-(trifluoromethyl)pyridin-2-yl)methyl)phenyl)pyrimidine-4-carboxamide]",0.62 µM,0.58 µM,–
"C[C@H](Nc1cc(C(N)=O)nc(-c2ccc(N3CCOc4cc(F)ccc43)cc2)n1)C(N)=O [Cpd No. 223, (S)-6-((1-amino-1-oxopropan-2-yl)amino)-2-(4-(7-fluoro-2,3-dihydro-4H-benzo[b][1,4]oxazin-4-yl)phenyl)pyrimidine-4-carboxamide]",–,3.78 µM,–
"NC(=O)c1cc(N[C@H]2CCNC2=O)nc(-c2ccc(N3Cc4cc(Cl)ccc4OCC3=O)cc2)n1 [Cpd No. 221, (S)-2-(4-(7-chloro-3-oxo-2,3-dihydrobenzo[f][1,4]oxazepin-4(5H)-yl)phenyl)-6-((2-oxopyrrolidin-3-yl)amino)-pyrimidine-4-carboxamide]",–,> 20 µM,–
